These results are taken from patent publication US11020381B2, “Biaryloxy derivatives as TTX-S blockers” (RaQualia Pharma Inc., priority 2017, dated 2021).

Structures are written as SMILES. “And” between values parts separate entries of the source, which are not always exact repeats. Identical values can stand only once. Like-named read-outs stand apart in the source and are kept apart here.

Assay [1] concerns the target T1, Nav1.5 (Homo sapiens (Human), UniProt Q14524). The experiment in a line: FRET assay. Particulars: HEK293 cells expressing human Nav1.5 channels; read-out: activity (IC50) against Nav1.5. The assay is classed as cell-based. The procedure: This screen is used to determine the effects of compounds on human Nav1.5 channels, utilizing the cell imaging technology by Hamamatsu Photonics's Functional Drug Screening System (FDSS). The changes of membrane potential are monitored with fluorescent membrane potential dye pair, DiSBAC2(3) and CC2-DMPE, using FRET technology.
HEK293 cells expressing human Nav1.5 channels are grown in T225 flasks, in a 5% CO2 humidified incubator to about 80% confluence. HEK293 cells expressing human Nav1.5 channels are maintained in Dulbecco's Modified Eagle Medium (high glucose) supplemented with 10% fetal calf serum (FCS), 100 units/mL Penicillin, 100 microgram/mL Streptomycin and 500 microgram/mL Geneticine. […]
The data is analyzed and reported as normalized ratios of intensities measured in the 465 nm and 575 nm channels. […]
“FI465B”=the mean of fluorescence intensity as baseline (before Na^+ ligand addition) at 465 nm
“FI575B”=the mean of fluorescence intensity as baseline (before Na^+ ligand addition) at 575 nm
“FI465Max” maximum fluorescence intensity at 465 nm after Na^+ stimulation
“FI575Min”=minimum fluorescence intensity at 575 nm after Na^+ stimulation
(§1) This analysis is performed using a computerized specific program designed for FDSS generated data. Fluorescence ratio values are plotted using XLfit to determine an IC50 value for each compound.

For assay [2], the target named is T2, Nav1.7 (Homo sapiens (Human), UniProt Q15858). The experiment in a line: Affinity to resting state (Kr) and inactivated state (Ki), manual patch clamp. To be noted: read-out: Ki (inactivated state) against Nav1.7. The assay is classed as cell-based. The text has this:
Affinity to Resting State (Kr) and Inactivated State (Ki) of Test Compound
The normalized steady-state inactivation curve is constructed using 2 sec (for vehicle) or 60 sec (for drugs) conditioning pulse to different potentials followed immediately by the test pulse to −10 mV. Peak currents are plotted as fraction of the maximum current at the conditioning potentials ranging from −120 mV to 0 mV for Nav1.7. V1/2 and k values are estimated from Boltzmann fits. The affinity of test compound to resting state of Na channels (Kresting or Kr) is assessed by depolarizing test pulse from a negative holding potential of −130 mV, where virtually all channels are in the resting state. Kr value is calculated by a conventional 1:1 binding model: Kresting(Kr)={[drug]Imax,drug/(Imax,control−Imax,drug)} [Math.6] where Kresting (=Kr) is a dissociation constant for the resting state and [drug] is compound concentration. Imax,control and Imax,drug are peak currents in the absence and presence of compound, respectively.
Interaction of the compound with the channel on inactivated state is evaluated by the following equation: Kinact(Ki)={[drug]/((1+[drug]/Kr)*exp(−ΔV/k)−1)} [Math.7] where Kinact (=Ki) is a dissociation constant for the inactivated state. ΔV is the compound-induced voltage shift of half maximal voltage of Boltzmann curve and k is the slop factor on presense of compound.
A general note: The patch-clamp technique gives a direct electrical read-out from membranes.

Assay [3] addresses T2, Nav1.7. The experiment in a line: Manual patch clamp assay, two pulse protocol. The assay is classed as cell-based. The procedure: Manual patch clamp recordings are conducted at RT using the voltage-clamp amplifier (Axon Instruments or HEKA electronik). Electrodes are pulled with P-97 electrode puller (Sutter Instrument). The electrode resistances are 1-3 MOhm when intercellular solution is filled. Currents are lowpass filtered between 2-5 kHz and digitally sampled at 10 kHz.
The extracellular and intercellular solutions for human Nav1.7 and NaV1.5 consist of the following composition:
Extracellular recording solution (mM): 135 NaCl, 5 KCl, 2 CaCl2, 1 MgCl2, 10 HEPES, and 10 Glucose, pH 7.4 adjusted with NaOH; and
Intercellular solution (mM): 120 CsF, 15 NaCl, 10 EGTA, and 10 HEPES, pH 7.2 adjusted with CsOH.
After whole-cell configuration is achieved, cell is monitored at least 10 minutes to allow cell dialysis with pipette solution. To evaluate of inhibitory effects of test compounds, the cells are clamped at −120 or −130 mV. […]
Peak currents evoked by Test 1 and Test 2 pulses are sampled with Clampex (Axon Instruments) or Pulse+Pulse Fit (HEKA). Averaged peak currents under vehicle or test compounds are calculated from 3 data points at end of each condition. Inhibitory effect (% inhibition) of test compound is calculated as bellow; % inhibition=[1−Averaged peak current (Compound)/Averaged peak current (Vehicle)]×100 [Math.5] […]

Assay [4] deals with T2, Nav1.7. The assay can be described thus: EFS-FRET assay. Particulars: CHO cells expressing human Nav1.7 channels; read-out: IC50 against Nav1.7. The assay is classed as cell-based. The method, then: This screen is used to determine the effects of compounds on human Nav1.7 channels, utilizing electrical field stimulation (EFS) system in 96-well plate format on FDSS (Hamamatsu Photonics) platform. The changes of membrane potential are monitored with FRET dye pair, DiSBAC2(3) and PTS 18.
CHO (Chinese hamster ovary) cells expressing human Nav1.7 channels are grown in T225 flasks, in a 5% CO2 humidified incubator to about 80% confluence. Media composition consists of HAM/F12 with Glutamax I, 10% FCS, 100 units/mL penicillin and 100 microgram/mL hygromycin.
Seed each cell lines (1×10^5 cells/well) into 96-well plates prior to experimentation.
Incubate at 37° C. in 5% CO2 for 24 hours.
Wash each well with assay buffer (140 mM NaCl, 4.5 mM KCl, 10 mM D-Glucose, 2 mM CaCl2, 1 mM MgCl2, 10 mM HEPES, pH 7.4 adjusted with NaOH) twice.
Add 1st loading solution containing 10 microM PTS 18 and 0.06% Pluronic F-127 in assay buffer.
Incubate the plate at rt in dark for 1 hour.
Remove 1st loading solution and add 2nd loading solution containing 12.5 microM DiSBAC2(3), 1.25 mM Xylene Fast Yellow and 0.0075% Pluronic F-127 in assay buffer.
Place the plate under the dark at rt for 25 minutes.
Add compound solutions into the assay plate.
Set the assay plate in FDSS and place an EFS device on the plate.
Measure EFS-induced fluorescent response by FDSS.
The data are analyzed and reported as normalized ratios of intensities measured at […]. The process of calculating these ratios is performed as follows:
as §1

In assay [5] the target is T1, Nav1.5. The assay can be described thus: Automated electrophysiology assay (Qpatch HTX). It counts as cell-based. Particulars: Test 2 pulse, read-out: Inactivated IC50 against Nav1.5. The method, then: Automated Electrophysiology Assay
Automated patch clamp recordings are conducted for evaluation of inhibitory effect against Nav1.5 with the Qpatch HTX system according the manufacturer's specifications (Sophion).
The extracellular and intercellular solutions consist of the following composition:
Extracellular recording solution (mM): 137 NaCl, 4 KCl, 1.8 CaCl2, 1 MgCl2, 10 HEPES, and 10 Glucose, pH 7.4 adjusted with NaOH
Intercellular solution (mM): 135 CsF, 10 NaCl, 5 EGTA, and 10 HEPES, pH 7.3 adjusted with CsOH.
To evaluate of inhibitory effects of test compounds against Nav1.5, the cells are clamped at −110 mV. […]
Peak currents evoked by Testl and Test 2 pulses are sampled with Qpatch assay software (Sophion). Averaged peak currents under vehicle or test compounds are calculated from 3 data points at end of each condition. Inhibitory effect (% inhibition) of test compound is calculated as bellow; % inhibition=[1−Averaged peak current (Compound)/Averaged peak current (Vehicle)]×100 [Math.4]
Inhibitory effects (% inhibition) of each concentration are measured from at least 2 cells. Averaged inhibitory effects are plotted against test concentration and IC50 values at Test 1 (Closed IC50) or Test 2 (Inactivated IC50) are calculated with Hill equation, respectively. […]

The target in assay [6] is T2, Nav1.7. Particulars: data cited from the table at page 103 in WO2012/007868; read-out: IC50 against Nav1.7 channel; cited from earlier work.

T2 sequence (Q15858 whole entry): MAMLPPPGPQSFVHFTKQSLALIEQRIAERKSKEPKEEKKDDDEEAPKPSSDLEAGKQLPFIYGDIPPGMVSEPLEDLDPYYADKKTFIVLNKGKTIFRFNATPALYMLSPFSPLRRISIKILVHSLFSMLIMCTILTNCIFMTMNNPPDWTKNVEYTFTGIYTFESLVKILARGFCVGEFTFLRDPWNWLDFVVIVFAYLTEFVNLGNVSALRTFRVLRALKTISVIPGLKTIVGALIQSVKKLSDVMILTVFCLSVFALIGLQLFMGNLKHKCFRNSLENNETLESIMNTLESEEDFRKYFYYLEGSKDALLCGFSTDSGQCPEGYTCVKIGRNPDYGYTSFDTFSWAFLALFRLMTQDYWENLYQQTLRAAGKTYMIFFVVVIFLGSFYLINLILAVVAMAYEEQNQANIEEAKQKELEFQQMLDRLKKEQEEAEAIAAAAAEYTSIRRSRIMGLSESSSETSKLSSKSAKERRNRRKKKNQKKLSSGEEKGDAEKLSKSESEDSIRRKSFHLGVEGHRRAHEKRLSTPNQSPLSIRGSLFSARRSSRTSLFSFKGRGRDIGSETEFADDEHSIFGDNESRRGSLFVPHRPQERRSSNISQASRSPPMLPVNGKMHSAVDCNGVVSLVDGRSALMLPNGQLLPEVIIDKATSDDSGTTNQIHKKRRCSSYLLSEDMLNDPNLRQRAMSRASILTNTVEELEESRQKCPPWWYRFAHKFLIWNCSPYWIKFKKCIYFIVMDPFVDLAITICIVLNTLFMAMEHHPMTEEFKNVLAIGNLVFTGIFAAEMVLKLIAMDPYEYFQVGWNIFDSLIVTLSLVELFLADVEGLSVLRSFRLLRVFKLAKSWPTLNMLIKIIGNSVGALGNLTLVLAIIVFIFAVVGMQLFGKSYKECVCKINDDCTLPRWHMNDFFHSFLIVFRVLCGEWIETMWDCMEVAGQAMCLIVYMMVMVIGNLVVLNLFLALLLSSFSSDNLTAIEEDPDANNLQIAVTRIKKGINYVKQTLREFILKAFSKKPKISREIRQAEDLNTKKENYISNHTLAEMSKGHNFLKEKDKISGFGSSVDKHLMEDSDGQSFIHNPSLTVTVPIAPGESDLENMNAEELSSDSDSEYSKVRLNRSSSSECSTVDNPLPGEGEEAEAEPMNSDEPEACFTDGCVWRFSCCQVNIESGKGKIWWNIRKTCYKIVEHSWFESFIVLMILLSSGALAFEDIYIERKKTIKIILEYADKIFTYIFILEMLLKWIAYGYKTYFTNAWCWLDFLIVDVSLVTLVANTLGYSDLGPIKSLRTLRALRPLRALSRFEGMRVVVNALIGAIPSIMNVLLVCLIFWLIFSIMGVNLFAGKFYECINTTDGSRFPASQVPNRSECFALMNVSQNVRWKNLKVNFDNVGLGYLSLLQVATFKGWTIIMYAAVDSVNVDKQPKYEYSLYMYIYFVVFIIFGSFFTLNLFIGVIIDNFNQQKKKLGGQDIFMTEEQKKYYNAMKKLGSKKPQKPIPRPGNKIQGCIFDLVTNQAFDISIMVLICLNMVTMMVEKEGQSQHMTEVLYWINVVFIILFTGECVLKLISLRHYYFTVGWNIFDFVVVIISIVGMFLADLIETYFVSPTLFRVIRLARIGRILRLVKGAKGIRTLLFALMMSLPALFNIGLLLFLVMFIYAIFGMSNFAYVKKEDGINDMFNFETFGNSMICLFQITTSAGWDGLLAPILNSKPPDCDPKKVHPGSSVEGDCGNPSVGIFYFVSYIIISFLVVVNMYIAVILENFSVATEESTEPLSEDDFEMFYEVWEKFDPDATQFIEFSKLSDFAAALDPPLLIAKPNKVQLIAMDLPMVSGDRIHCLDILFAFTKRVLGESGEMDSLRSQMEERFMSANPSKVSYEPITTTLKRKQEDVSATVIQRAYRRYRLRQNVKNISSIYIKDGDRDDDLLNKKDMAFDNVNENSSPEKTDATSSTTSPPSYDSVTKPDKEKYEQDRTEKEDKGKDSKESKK
T1 sequence (Q14524 whole entry): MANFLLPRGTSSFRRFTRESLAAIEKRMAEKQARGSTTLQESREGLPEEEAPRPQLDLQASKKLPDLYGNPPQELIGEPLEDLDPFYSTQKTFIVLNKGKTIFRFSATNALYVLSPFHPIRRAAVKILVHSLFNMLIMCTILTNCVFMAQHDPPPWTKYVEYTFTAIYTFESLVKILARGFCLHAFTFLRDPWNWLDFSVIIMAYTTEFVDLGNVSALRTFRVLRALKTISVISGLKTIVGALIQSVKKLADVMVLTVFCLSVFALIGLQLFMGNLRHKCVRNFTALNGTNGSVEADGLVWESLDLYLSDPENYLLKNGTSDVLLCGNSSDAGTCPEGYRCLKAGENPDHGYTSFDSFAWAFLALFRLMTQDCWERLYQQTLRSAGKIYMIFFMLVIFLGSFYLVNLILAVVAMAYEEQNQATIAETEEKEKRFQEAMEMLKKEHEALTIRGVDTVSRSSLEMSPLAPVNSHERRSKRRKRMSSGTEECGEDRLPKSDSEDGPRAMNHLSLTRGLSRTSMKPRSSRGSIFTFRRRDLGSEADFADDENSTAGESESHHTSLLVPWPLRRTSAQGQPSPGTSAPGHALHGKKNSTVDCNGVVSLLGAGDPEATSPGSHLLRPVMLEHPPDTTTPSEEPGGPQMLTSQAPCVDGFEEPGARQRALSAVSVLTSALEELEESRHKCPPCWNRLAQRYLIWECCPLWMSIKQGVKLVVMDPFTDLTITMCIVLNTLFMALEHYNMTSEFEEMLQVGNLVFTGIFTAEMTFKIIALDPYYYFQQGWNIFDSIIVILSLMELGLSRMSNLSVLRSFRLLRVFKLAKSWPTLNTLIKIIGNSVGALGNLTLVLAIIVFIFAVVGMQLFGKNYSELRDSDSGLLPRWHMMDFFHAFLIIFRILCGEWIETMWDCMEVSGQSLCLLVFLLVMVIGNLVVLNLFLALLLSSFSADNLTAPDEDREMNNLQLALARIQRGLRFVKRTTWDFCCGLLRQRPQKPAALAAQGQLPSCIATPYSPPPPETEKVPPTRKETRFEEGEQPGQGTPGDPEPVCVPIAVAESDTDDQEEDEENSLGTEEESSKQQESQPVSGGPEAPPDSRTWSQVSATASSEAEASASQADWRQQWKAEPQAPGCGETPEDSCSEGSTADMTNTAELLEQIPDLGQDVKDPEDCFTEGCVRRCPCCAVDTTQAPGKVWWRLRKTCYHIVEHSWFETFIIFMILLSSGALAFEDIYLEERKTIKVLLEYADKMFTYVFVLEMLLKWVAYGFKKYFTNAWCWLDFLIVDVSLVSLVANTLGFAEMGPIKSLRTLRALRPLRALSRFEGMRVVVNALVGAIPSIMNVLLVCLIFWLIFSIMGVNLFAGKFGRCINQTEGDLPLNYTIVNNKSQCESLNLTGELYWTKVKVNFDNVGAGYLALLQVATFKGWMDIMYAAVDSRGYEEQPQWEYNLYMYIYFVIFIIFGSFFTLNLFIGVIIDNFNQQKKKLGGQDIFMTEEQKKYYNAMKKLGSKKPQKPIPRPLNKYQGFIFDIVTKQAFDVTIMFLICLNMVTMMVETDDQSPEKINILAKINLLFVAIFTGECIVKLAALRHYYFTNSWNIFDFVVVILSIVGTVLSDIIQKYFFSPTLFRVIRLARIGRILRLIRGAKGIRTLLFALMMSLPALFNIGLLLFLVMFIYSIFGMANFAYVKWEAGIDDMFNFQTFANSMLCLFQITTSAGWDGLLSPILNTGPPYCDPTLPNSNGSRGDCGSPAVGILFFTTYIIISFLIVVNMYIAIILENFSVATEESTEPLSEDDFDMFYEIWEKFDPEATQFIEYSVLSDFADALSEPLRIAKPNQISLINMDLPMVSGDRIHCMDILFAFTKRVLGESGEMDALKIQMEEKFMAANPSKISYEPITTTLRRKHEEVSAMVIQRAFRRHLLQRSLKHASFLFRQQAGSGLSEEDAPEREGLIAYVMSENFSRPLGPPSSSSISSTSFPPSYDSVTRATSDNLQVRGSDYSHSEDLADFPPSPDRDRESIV

For the compound `CS(=O)(=O)NC(=O)c1ccc(COc2cccc(-c3ccc(OCC4CC4)nc3)c2)cc1` [Example 2, 4-((3-(6-(cyclopropylmethoxy)pyridin-3-yl)phenoxy)methyl)-N-(methylsulfonyl)benzamide], the IC50 at Nav1.5 [1] was above 30000 nM; on Nav1.7 [4], 84 nM and 80 nM. Moreover, at Nav1.7 [2], the Ki came to 22 nM. Also, the “selectivity for Nav1.7 over Nav1.5” value on Nav1.7 [3] was found to be 75 fold.
As for `CS(=O)(=O)NC(=O)c1ccc(COc2cccc(-c3ccc(OCC4CC4)nc3)c2)c(F)c1` [Example 14, 4-((3-(6-(cyclopropylmethoxy)pyridin-3-yl)phenoxy)methyl)-3-fluoro-N-(methylsulfonyl)benzamide], at Nav1.7 [4], the IC50 worked out at 50 nM.
Regarding `CS(=O)(=O)NC(=O)c1cc(F)c(COc2cccc(-c3ccc(OCC4CC4)nc3)c2)cc1F` [Example 24, 4-((3-(6-(cyclopropylmethoxy)pyridin-3-yl)phenoxy)methyl)-2,5-difluoro-N-(methylsulfonyl)benzamide], the IC50 at Nav1.7 [4] worked out at 50 nM.
On to `CS(=O)(=O)NC(=O)c1ccc(COc2cc(F)cc(-c3ccc(OCC4CC4)nc3)c2)cc1` [Example 30, 4-((3-(6-(cyclopropylmethoxy)pyridin-3-yl)-5-fluorophenoxy)methyl)-N-(methylsulfonyl)benzamide], for which the IC50 at Nav1.5 [5] is above 30000 nM.
Turning to `CS(=O)(=O)NC(=O)c1ccc(COc2cccc(-c3cc(CC4CC4)on3)c2)c(F)c1` [Example 84, 4-((3-(5-(cyclopropylmethyl)isoxazol-3-yl)phenoxy)methyl)-3-fluoro-N-(methylsulfonyl)benzamide], the IC50 on Nav1.7 [4] is 50 nM.
On to `CS(=O)(=O)NC(=O)c1ccc(COc2cccc(C3CCNCC3)c2)cc1` [WO2012/007868 Example 35], for which the IC50 at Nav1.7 [6] was above 3000 nM.
For the compound `Cc1c(OCc2cc(F)c(C(=O)NS(C)(=O)=O)cc2F)cccc1-n1cccn1` [WO2012/007868 Example 102], the IC50 on Nav1.7 [6] was above 3000 nM.
On to `CS(=O)(=O)NC(=O)c1ccc(COc2cccc(-c3cccnc3)c2)cc1` [reference compound (A), reference compound], for which the IC50 on Nav1.7 [4] was above 3000 nM.
Still for that read-out and setting: next, `CS(=O)(=O)NC(=O)c1ccc(COc2cccc(-c3cccnc3)c2)c(F)c1` [reference compound (B), reference compound]: 1300 nM; `CS(=O)(=O)NC(=O)c1cc(F)c(COc2cccc(-c3cccnc3)c2)cc1F` [reference compound (C), reference compound]: 600 nM.

By IC50 is commonly meant the concentration at which inhibition is half-maximal.
